Source: patent US8188059B2, “Compounds and methods for modulating expression of GCGR” (Isis Pharmaceuticals, Inc., priority 2006, dated 2012)
Strand notation (5' to 3'): a small letter for the sugar, then the base; units joined by * are phosphorothioate-linked, units joined directly phosphodiester-linked; [ ] holds rarer units or linkages, { } end groups; capitals alone tell only the bases. e = 2'-O-(2-methoxyethyl) (MOE); [5mC] = 5-methylcytosine; d = 2'-deoxy (DNA)

Experiments:
SGLT2 mRNA = SGLT2 mRNA levels in kidney of Balb/c mice, twenty 1-10-1 MOE gapmers at 350 nmol/kg, PPS 534 and PPS 553 (Example 18, Table 74); assay type: in vivo, mouse; conditions: 350 nmol/kg i.p. twice per week for two weeks
Method: Twenty 1-10-1 MOE gapmers that are complementary to human/monkey/mouse/rat SGLT2 were designed, synthesized and tested in vivo for suppression of SGLT2 mRNA levels in kidney. Data are averages from two experiments in which male 6-week old Balb/c mice were administered intraperitoneal injections of 350 nmol/kg of oligonucleotide, twice per week, over a period of two weeks (a total of four injections). Mice were sacrificed 48 hours following the last administration and evaluated for SGLT2 mRNA levels in kidney. SGLT2 mRNA levels were determined by quantitative real-time PCR analysis according to standard procedures, using two different PCR primer probe sets, primer probe set (PPS) 534 and PPS 553. SGLT2 mRNA levels were normalized to cyclophilin mRNA levels, which were also measured by quantitative real-time PCR.

PTP1B mRNA [1] = experiment: Dose response for human PTP1B in HuVEC cells, Primer Probe Set 198 (Example 25, Table 86); assay type: cell-based
Method: (§1) Human vascular endothelial (HuVEC) cells were plated at a density of 5000 cells per well and treated as described herein with nM concentrations of short antisense compound as indicated in Table 86. After the treatment period, RNA was isolated from the cells and PTP1B mRNA levels were measured by quantitative real-time PCR, as described herein. PTP1B mRNA levels were adjusted according to total RNA content as measured by RIBOGREEN®. Two different human PTP1B primer probe sets were used to measure mRNA levels. Results with Primer Probe Set (PPS) 198 are shown in Table 86, and results with Primer Probe Set (PPS) 3000 are shown in Table 87. Results are presented as percent inhibition of PTP1B mRNA expression relative to untreated control cells.

PTP1B mRNA [2] = experiment: Dose response for human PTP1B in HuVEC cells, Primer Probe Set 3000 (Example 25, Table 87); assay type: cell-based
Method: as §1

PCSK9 mRNA [3] = assay type: cell-based, human; conditions: Hep3B cells, 100 nM, relative to untreated control cells; for % Inhib (PCSK9 mRNA): 0 = no reduction observed
Method: When cells reached appropriate confluency, they were treated with oligonucleotide using LIPOFECTIN® as described. […] Cells were treated and data were obtained in duplicate or triplicate. […] Cells were harvested 16-24 hours after oligonucleotide treatment.
Short antisense compounds targeted to a PCSK9 nucleic acid were tested for their effects on PCSK9 mRNA in vitro. The Isis No, gapmer motif and SEQ ID NO of each short antisense compound are shown again in Table 75. Cultured Hep3B cells were treated with 100 nM of short antisense compound. 5-10-5 MOE gapmers targeted to a PCSK9 nucleic acid were used as positive controls. After the treatment period, RNA was isolated from the cells and PCSK9 mRNA levels were measured by quantitative real-time PCR, as described herein. PCSK9 mRNA levels were adjusted according to total RNA content as measured by RIBOGREEN®. Results are presented in Table 75 as percent inhibition of PCSK9 (% Inhib), relative to untreated control cells.

PCSK9 mRNA [4] = experiment: Dose-dependent inhibition of PCSK9 in Hep3B cells with EC50 (Example 19, Table 76); assay type: cell-based, human
Method: Short antisense compounds targeted to a PCSK9 nucleic acid were tested in a dose response experiment Hep3B cells. After the treatment period, RNA was isolated from the cells and PCSK9 mRNA levels were measured by quantitative real-time PCR, as described herein. PCSK9 mRNA levels were normalized to cyclophilin mRNA levels, as measured by real-time PCR using a cyclophilin-specific primer probe set. Results are presented as percent inhibition of PCSK9, relative to untreated control cells. […] As illustrated in the following table, PCSK9 mRNA levels were reduced in a dose-dependent manner.

| Substance | SGLT2 mRNA in kidney, % change relative to saline (SGLT2 mRNA; primer probe set 534) | SGLT2 mRNA in kidney, % change relative to saline (SGLT2 mRNA; primer probe set 553) | % Inhibition Range (PCSK9 mRNA) (PCSK9 mRNA [3]) | % Inhib (PCSK9 mRNA) (PCSK9 mRNA [3]) | % Inhibition of PCSK9 (PCSK9 mRNA [4]; 5 nM) | % Inhibition of PCSK9 (PCSK9 mRNA [4]; 10 nM) | % Inhibition of PCSK9 (PCSK9 mRNA [4]; 20 nM) | % Inhibition of PCSK9 (PCSK9 mRNA [4]; 40 nM) | % Inhibition of PCSK9 (PCSK9 mRNA [4]; 80 nM) | % Inhibition of PCSK9 (PCSK9 mRNA [4]; 160 nM) | further results |
| --- | --- | --- | --- | --- | --- | --- | --- | --- | --- | --- | --- |
| 370717 (antisense eT*dA*dG*d[5mC]*d[5mC]*dA*d[5mC]*d[5mC]*dA*dA*d[5mC]*eT) [compound 370717] | −84.4% | −84.3% |  |  |  |  |  |  |  |  |  |
| 379684 (antisense eT*dG*dT*d[5mC]*dA*dG*d[5mC]*dA*dG*dG*dA*eT) [compound 379684] | −45.0% | −43.2% |  |  |  |  |  |  |  |  |  |
| 379685 (antisense eT*dG*dA*d[5mC]*d[5mC]*dA*dG*d[5mC]*dA*dG*dG*eA) [compound 379685] | −10.3% | −20.5% |  |  |  |  |  |  |  |  |  |
| 379686 (antisense eA*d[5mC]*d[5mC]*dA*d[5mC]*dA*dA*dG*d[5mC]*d[5mC]*dA*eA) [compound 379686] | −71.9% | −75.1% |  |  |  |  |  |  |  |  |  |
| 379687 (antisense eG*dA*dT*dG*dT*dT*dG*d[5mC]*dT*dG*dG*e[5mC]) [compound 379687] | −47.1% | −52.1% |  |  |  |  |  |  |  |  |  |
| 379688 (antisense e[5mC]*d[5mC]*dA*dA*dG*d[5mC]*d[5mC]*dA*d[5mC]*dT*dT*eG) [compound 379688] | −62.6% | −70.4% |  |  |  |  |  |  |  |  |  |
| 379689 (antisense eA*dG*dA*dG*d[5mC]*dG*d[5mC]*dA*dT*dT*d[5mC]*e[5mC]) [compound 379689] | −17.5% | −30.4% |  |  |  |  |  |  |  |  |  |
| 379690 (antisense eA*d[5mC]*dA*dG*dG*dT*dA*dG*dA*dG*dG*e[5mC]) [compound 379690] | −18.9% | −22.5% |  |  |  |  |  |  |  |  |  |
| 379691 (antisense eA*dG*dA*dT*d[5mC]*dT*dT*dG*dG*dT*dG*eA) [compound 379691] | −35.0% | −48.6% |  |  |  |  |  |  |  |  |  |
| 379692 (antisense eT*dG*dT*dT*d[5mC]*d[5mC]*dA*dG*d[5mC]*d[5mC]*d[5mC]*eA) [compound 379692] | −88.1% | −88.5% |  |  |  |  |  |  |  |  |  |
| 379693 (antisense e[5mC]*dA*dT*dG*dG*dT*dG*dA*dT*dG*d[5mC]*e[5mC]) [compound 379693] | −51.6% | −59.9% |  |  |  |  |  |  |  |  |  |
| 399208 (antisense eA*eG*d[5mC]*dT*d[5mC]*dG*d[5mC]*dT*dA*d[5mC]*d[5mC]*dT*e[5mC]*eT) [compound 399208] |  |  |  |  |  |  |  |  |  |  | % Inhibition of PTP1B mRNA (PTP1B mRNA [1]; PPS 198, 1.11 nM): 0%; % Inhibition of PTP1B mRNA (PTP1B mRNA [1]; PPS 198, 3.33 nM): 37%; % Inhibition of PTP1B mRNA (PTP1B mRNA [1]; PPS 198, 10.0 nM): 86%; % Inhibition of PTP1B mRNA (PTP1B mRNA [1]; PPS 198, 30.0 nM): 93%; % Inhibition of PTP1B mRNA (PTP1B mRNA [2]; PPS 3000, 1.11 nM): 0%; % Inhibition of PTP1B mRNA (PTP1B mRNA [2]; PPS 3000, 3.33 nM): 47%; % Inhibition of PTP1B mRNA (PTP1B mRNA [2]; PPS 3000, 10.0 nM): 85%; % Inhibition of PTP1B mRNA (PTP1B mRNA [2]; PPS 3000, 30.0 nM): 96% |
| 399276 (antisense eG*eA*dG*dG*dT*dA*dT*d[5mC]*d[5mC]*d[5mC]*dA*dT*e[5mC]*eT) [compound 399276] |  |  |  |  |  |  |  |  |  |  | % Inhibition of PTP1B mRNA (PTP1B mRNA [1]; PPS 198, 1.11 nM): 0%; % Inhibition of PTP1B mRNA (PTP1B mRNA [1]; PPS 198, 3.33 nM): 8%; % Inhibition of PTP1B mRNA (PTP1B mRNA [1]; PPS 198, 10.0 nM): 61%; % Inhibition of PTP1B mRNA (PTP1B mRNA [1]; PPS 198, 30.0 nM): 89%; % Inhibition of PTP1B mRNA (PTP1B mRNA [2]; PPS 3000, 1.11 nM): 0%; % Inhibition of PTP1B mRNA (PTP1B mRNA [2]; PPS 3000, 3.33 nM): 14%; % Inhibition of PTP1B mRNA (PTP1B mRNA [2]; PPS 3000, 10.0 nM): 64%; % Inhibition of PTP1B mRNA (PTP1B mRNA [2]; PPS 3000, 30.0 nM): 86% |
| 399315 (antisense eG*eG*d[5mC]*dA*dA*d[5mC]*dT*dT*d[5mC]*dA*dA*d[5mC]*e[5mC]*eT) [compound 399315] |  |  |  |  |  |  |  |  |  |  | % Inhibition of PTP1B mRNA (PTP1B mRNA [1]; PPS 198, 1.11 nM): 0%; % Inhibition of PTP1B mRNA (PTP1B mRNA [1]; PPS 198, 3.33 nM): 20%; % Inhibition of PTP1B mRNA (PTP1B mRNA [1]; PPS 198, 10.0 nM): 68%; % Inhibition of PTP1B mRNA (PTP1B mRNA [1]; PPS 198, 30.0 nM): 88%; % Inhibition of PTP1B mRNA (PTP1B mRNA [2]; PPS 3000, 1.11 nM): 0%; % Inhibition of PTP1B mRNA (PTP1B mRNA [2]; PPS 3000, 3.33 nM): 25%; % Inhibition of PTP1B mRNA (PTP1B mRNA [2]; PPS 3000, 10.0 nM): 71%; % Inhibition of PTP1B mRNA (PTP1B mRNA [2]; PPS 3000, 30.0 nM): 93% |
| 400307 (e[5mC]*eG*dG*d[5mC]*d[5mC]*dG*d[5mC]*dT*dG*dA*d[5mC]*d[5mC]*eA*e[5mC]; antisense) [compound 400307] |  |  | 70-80% | 76% | 35% | 39% | 45% | 56% | 92% | 93% |  |
| 400308 (e[5mC]*e[5mC]*dG*dG*d[5mC]*d[5mC]*dG*d[5mC]*dT*dG*dA*d[5mC]*e[5mC]*eA; antisense) [compound 400308] |  |  | 50-60% | 55% | 31% | 10% | 26% | 40% | 77% | 86% |  |
| 400309 (e[5mC]*e[5mC]*d[5mC]*dG*dG*d[5mC]*d[5mC]*dG*d[5mC]*dT*dG*dA*e[5mC]*e[5mC]; antisense) [compound 400309] |  |  | 40-50% | 44% | 49% | 23% | 38% | 12% | 72% | 78% |  |
| 400327 (eG*eT*d[5mC]*d[5mC]*d[5mC]*d[5mC]*dA*dA*dA*dG*dT*d[5mC]*e[5mC]*e[5mC]; antisense) [compound 400327] |  |  | 30-40% | 36% | 5% | 37% | 23% | 49% | 43% | 55% |  |
| 400330 (e[5mC]*e[5mC]*dA*d[5mC]*dG*dT*dG*dG*dG*d[5mC]*dA*dG*e[5mC]*eA; antisense) [compound 400330] |  |  | 40-50% | 43% | 8% | 32% | 40% | 69% | 82% | 71% |  |
| 400331 (eG*e[5mC]*d[5mC]*dA*d[5mC]*dG*dT*dG*dG*dG*d[5mC]*dA*eG*e[5mC]; antisense) [compound 400331] |  |  | 30-40% | 35% | 29% | 40% | 47% | 63% | 75% | 82% |  |
| 400352 (antisense e[5mC]*eA*d[5mC]*d[5mC]*d[5mC]*dT*d[5mC]*dA*d[5mC]*d[5mC]*d[5mC]*d[5mC]*e[5mC]*eA) [compound 400352] |  |  | 20-30% | 29% | 7% | 16% | 40% | 44% | 63% | 64% |  |
| 400353 (antisense eA*e[5mC]*dA*d[5mC]*d[5mC]*d[5mC]*dT*d[5mC]*dA*d[5mC]*d[5mC]*d[5mC]*e[5mC]*e[5mC]) [compound 400353] |  |  | 10-20% | 19% | 15% | 27% | 23% | 43% | 54% | 48% |  |
